Counter-ions that a name gives are not always drawn.
System: Male rats (HSD/Cpb:WU)
Experiment: telemetric body temperature measurements in freely moving rats (rise in core body temperature after manipulation for injection)
Type: in vivo
Conditions: subcutaneous, 22 mg/kg
From the text: Male rats (HSD/Cpb:WU, Harlan Sprague Dawley, Zeist, The Netherlands), weighing 350-480 g, were used. The rats were implanted with a Physio Tel TA11CTA-F40 Implant (Data Sciences International) under pentobarbital anesthesia. After surgery the rats were housed individually in a type II clear MACROLON™ cage (23×17××14 cm). The cages were placed on receivers (RLA 1020). After a recovery and adaptation period of at least one week the rats were used for the experiments. On the experimental day, body temperature, heart rate and locomotor activity was monitored for 30 minutes prior to injection of vehicle or test compound. This period provides a baseline core body temperature relative to which the changes of body temperature after the manipulation of the rats for injection are expressed. After 30 minutes the rats were injected subcutaneously with vehicle or test compound and the same parameters were measured for at least 60 minutes. Immediately after injection the core body temperature rises. Compounds inhibiting this rise in temperature reveal an inhibiting effect on acute body heat production. Results obtained with other parameters, such as the effect on heart rate and on locomotor activity are not presented here. 6 animals were used for measurement of each dose of compound
Data were analyzed using Dataquest IV Data Acquisition System Ver 2.2.
Compounds were dissolved in NaCl 0.9% (m/v) in water as vehicle for subcutaneous injection.

CNCCC(Oc1ccc(C(F)(F)F)cc1)c1ccccc1 (stereo not drawn) [Fluoxetine, Fluoxetine HCl, reference compound]
absolute mean increments in body temperature relative to baseline during 30 minutes prior to manipulation (5 minutes after injection): 0.28 °C
absolute mean increments in body temperature relative to baseline during 30 minutes prior to manipulation (10 minutes after injection): 0.59 °C
absolute mean increments in body temperature relative to baseline during 30 minutes prior to manipulation (15 minutes after injection): 0.71 °C
absolute mean increments in body temperature relative to baseline during 30 minutes prior to manipulation (20 minutes after injection): 0.72 °C
absolute mean increments in body temperature relative to baseline during 30 minutes prior to manipulation (25 minutes after injection): 0.66 °C
absolute mean increments in body temperature relative to baseline during 30 minutes prior to manipulation (30 minutes after injection): 0.56 °C
absolute mean increments in body temperature relative to baseline during 30 minutes prior to manipulation (35 minutes after injection): 0.55 °C
absolute mean increments in body temperature relative to baseline during 30 minutes prior to manipulation (40 minutes after injection): 0.45 °C
absolute mean increments in body temperature relative to baseline during 30 minutes prior to manipulation (45 minutes after injection): 0.38 °C
absolute mean increments in body temperature relative to baseline during 30 minutes prior to manipulation (50 minutes after injection): 0.27 °C
absolute mean increments in body temperature relative to baseline during 30 minutes prior to manipulation (55 minutes after injection): 0.29 °C
absolute mean increments in body temperature relative to baseline during 30 minutes prior to manipulation (60 minutes after injection): 0.85 °C

Source: patent US7396854B2, “Use of serotonergic compound for a method of treatment of hot flushes in post-menopausal women” (N.V. Organon, priority 2001, dated 2008)
